{
  "source": "patent US9340572B2",
  "about": "“Taccalonolide microtubule stabilizers” (THE BOARD OF REGENTS OF THE UNIVERSITY OF TEXAS SYSTEM, priority 2011, dated 2016)",
  "key": {"[1]": {"tested_on": "isogenic HeLa-derived cell line that expresses the βIII isotype of tubulin", "conditions": "cited from earlier work"}, "HeLa cells": {"tested_on": "HeLa cells", "experiment": "Cell cycle distribution by flow cytometry", "conditions": "18 h; 125 nM AF, 200 nM AI, 35 nM AJ"}},
  "data": [
    {"smiles": "CC(=O)O[C@H]1C(=O)[C@@]2(C)[C@H]([C@H](OC(=O)c3ccccc3)[C@]3(O)C[C@H](OC(=O)[C@H](O)[C@@H](NC(=O)c4ccccc4)c4ccccc4)C(C)=C1C3(C)C)[C@]1(OC(C)=O)CO[C@@H]1C[C@@H]2O", "note": "[paclitaxel]", "values": [
      {"measurement": "sensitivity of βIII-tubulin-overexpressing cell line compared with parental HeLa cells", "setting": "[1]", "value": "less sensitive"},
      {"measurement": "effect on cell cycle distribution / mitotic progression", "setting": "HeLa cells", "value": "mitotic arrest"}
    ]}
  ]
}
